Measured values published in ChEMBL document CHEMBL1139920, “Synthesis and biological evaluation of diamine-based histamine H3 antagonists with serotonin reuptake inhibitor activity” (Bioorg Med Chem Lett, 2007).

Experiments:
Histamine H3 receptor [1] = target: T1, Histamine H3 receptor (Homo sapiens, UniProt Q9Y5N1); assay: Binding affinity at human histamine H3 receptor
[2] = target: Histamine H2 receptor (Homo sapiens) (UniProt P25021); assay: Binding affinity at histamine H2 receptor at 1 uM
[3] = target: T2, Sodium-dependent noradrenaline transporter (Homo sapiens, UniProt P23975); assay: Binding affinity at noradrenaline transporter at 1 uM
[4] = target: T2, Sodium-dependent noradrenaline transporter; assay: Binding affinity at human noradrenaline transporter
Histamine H3 receptor [5] = target: T1, Histamine H3 receptor; assay: Antagonist activity at human histamine H3 receptor; assay type: functional; conditions: read-out: pA2 (converted)
[6] = target: Sodium-dependent serotonin transporter (Homo sapiens, UniProt P31645); assay: Binding affinity at human SERT
[7] = target: Sodium-dependent serotonin transporter (Rattus norvegicus, UniProt P31652); assay: Binding affinity at rat SERT
Sodium-dependent serotonin transporter (Rattus norvegicus, UniProt P31652), sequence (P31652 whole entry): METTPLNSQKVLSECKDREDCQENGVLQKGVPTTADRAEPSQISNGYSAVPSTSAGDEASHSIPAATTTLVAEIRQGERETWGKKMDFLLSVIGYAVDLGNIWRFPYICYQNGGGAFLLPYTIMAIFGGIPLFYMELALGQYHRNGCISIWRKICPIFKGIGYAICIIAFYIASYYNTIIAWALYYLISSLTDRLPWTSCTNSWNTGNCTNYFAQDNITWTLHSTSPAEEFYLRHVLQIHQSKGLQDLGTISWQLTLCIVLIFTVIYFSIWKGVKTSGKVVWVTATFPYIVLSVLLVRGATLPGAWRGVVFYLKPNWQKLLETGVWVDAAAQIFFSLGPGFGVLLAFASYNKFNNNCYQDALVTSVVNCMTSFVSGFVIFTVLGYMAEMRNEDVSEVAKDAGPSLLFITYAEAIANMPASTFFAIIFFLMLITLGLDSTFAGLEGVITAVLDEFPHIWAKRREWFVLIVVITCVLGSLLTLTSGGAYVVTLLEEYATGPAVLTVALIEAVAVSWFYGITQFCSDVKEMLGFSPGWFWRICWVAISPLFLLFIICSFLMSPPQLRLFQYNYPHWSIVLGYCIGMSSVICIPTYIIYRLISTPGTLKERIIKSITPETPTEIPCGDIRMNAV

Sodium-dependent serotonin transporter (Homo sapiens, UniProt P31645), sequence (P31645 whole entry): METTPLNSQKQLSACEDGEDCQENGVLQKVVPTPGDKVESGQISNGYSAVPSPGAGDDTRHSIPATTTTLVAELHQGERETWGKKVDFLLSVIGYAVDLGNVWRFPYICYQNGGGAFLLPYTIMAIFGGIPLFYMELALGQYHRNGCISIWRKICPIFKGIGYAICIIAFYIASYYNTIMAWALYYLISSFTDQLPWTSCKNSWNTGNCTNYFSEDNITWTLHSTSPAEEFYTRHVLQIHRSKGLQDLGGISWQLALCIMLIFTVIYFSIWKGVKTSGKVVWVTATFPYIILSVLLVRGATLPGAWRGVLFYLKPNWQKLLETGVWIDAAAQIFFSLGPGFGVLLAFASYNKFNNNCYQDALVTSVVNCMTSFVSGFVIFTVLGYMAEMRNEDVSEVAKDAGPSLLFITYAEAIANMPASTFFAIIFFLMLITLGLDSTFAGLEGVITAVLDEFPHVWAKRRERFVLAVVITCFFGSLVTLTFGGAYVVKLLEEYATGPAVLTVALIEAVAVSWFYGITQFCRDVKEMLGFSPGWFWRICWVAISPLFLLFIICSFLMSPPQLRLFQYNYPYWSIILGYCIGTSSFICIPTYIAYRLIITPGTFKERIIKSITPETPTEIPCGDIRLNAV
T1 sequence (Q9Y5N1 whole entry): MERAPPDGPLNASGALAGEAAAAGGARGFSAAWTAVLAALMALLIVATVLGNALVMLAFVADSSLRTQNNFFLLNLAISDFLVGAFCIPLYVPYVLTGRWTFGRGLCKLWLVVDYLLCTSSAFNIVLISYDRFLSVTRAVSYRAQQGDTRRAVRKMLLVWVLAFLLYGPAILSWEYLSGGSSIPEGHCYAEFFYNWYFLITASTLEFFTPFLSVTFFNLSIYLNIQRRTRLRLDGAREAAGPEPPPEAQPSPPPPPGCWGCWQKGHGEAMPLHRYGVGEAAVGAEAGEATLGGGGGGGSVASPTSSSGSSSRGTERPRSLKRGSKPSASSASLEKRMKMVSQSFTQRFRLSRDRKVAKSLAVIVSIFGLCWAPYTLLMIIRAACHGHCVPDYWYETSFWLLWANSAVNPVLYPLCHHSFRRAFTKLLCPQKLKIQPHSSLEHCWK
T2 sequence (P23975 whole entry): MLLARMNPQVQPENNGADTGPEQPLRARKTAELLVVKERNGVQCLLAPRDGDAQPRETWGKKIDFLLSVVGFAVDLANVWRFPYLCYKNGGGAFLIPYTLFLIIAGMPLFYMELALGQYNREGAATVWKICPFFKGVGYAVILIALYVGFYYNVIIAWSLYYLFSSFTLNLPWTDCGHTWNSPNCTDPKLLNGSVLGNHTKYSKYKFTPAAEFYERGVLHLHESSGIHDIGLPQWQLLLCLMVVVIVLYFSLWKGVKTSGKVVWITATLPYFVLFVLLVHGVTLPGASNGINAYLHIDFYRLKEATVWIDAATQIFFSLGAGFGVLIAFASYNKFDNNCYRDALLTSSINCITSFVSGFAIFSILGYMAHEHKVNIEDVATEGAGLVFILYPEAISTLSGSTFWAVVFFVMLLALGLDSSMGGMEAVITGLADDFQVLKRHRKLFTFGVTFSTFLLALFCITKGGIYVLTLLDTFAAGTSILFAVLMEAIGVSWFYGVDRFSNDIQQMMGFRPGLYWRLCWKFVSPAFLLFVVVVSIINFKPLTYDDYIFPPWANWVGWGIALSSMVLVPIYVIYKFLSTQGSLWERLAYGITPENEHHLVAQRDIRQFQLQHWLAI
Histamine H2 receptor (Homo sapiens), sequence (P25021 whole entry): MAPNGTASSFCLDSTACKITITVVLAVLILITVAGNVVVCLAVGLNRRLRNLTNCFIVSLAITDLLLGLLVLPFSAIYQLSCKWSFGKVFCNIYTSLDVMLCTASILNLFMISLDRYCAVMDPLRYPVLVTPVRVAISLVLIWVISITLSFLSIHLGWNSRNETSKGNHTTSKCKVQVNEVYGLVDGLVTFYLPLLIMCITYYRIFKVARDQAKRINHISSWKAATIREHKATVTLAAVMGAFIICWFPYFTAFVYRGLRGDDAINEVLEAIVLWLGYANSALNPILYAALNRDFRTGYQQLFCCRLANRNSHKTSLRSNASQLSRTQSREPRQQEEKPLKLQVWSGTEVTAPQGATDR

| Structure (SMILES) | Ki (Histamine H3 receptor [1]) | Ki [7] | also measured |
| --- | --- | --- | --- |
| CN(C)CCC(Oc1ccccc1)c1ccc(OCCCN2CCCCC2)cc1 (stereo not given) | 0.6 nM |  | Activity [2]: 66%; Activity [3]: 73%; Ki [4]: 201 nM; Kb (Histamine H3 receptor [5]): 0.501 nM |
| CN(C)CCC(Oc1cccc(OCCCN2CCCCC2)c1)c1ccccc1 (stereo not given) |  |  | Ki [6]: 1480 nM |
| CN(C)CCC(Oc1ccc(Br)cc1)c1ccc(OCCCN2CCCCC2)cc1 (stereo not given) |  |  | Ki [6]: 9 nM |
| CN(C)CCC(Oc1ccc(C(F)(F)F)cc1)c1ccc(C#CCCN2CCCCC2)cc1 (stereo not given) | 5 nM | 33 nM |  |
| CC(C)N1CCN(C(=O)c2ccc(C(CCN(C)C)Oc3ccccc3)cc2)CC1 (stereo not given) | 0.8 nM | 63 nM |  |
| CN(C)CCC(Oc1ccc(Cl)c(Cl)c1)c1ccc(OCCCN2CCCCC2)cc1 (stereo in doubt; 40) |  | 7.7 nM |  |
| CN(C)CCC(Oc1ccccc1)c1cccc(OCCCN2CCCCC2)c1 (stereo not given) | 3.3 nM |  |  |
| Cc1ccc(OC(CCN(C)C)c2ccc(OCCCN3CCCCC3)cc2)cc1 (stereo not given) | 0.7 nM |  |  |
| CC(C)N1CCC(Oc2ccc(C(CCN(C)C)Oc3ccccc3)cc2)CC1 (stereo not given) |  | 39 nM |  |
| CN(C)CCC(Oc1cccc(Cl)c1)c1ccc(OCCCN2CCCCC2)cc1 (stereo in doubt; 38) | 0.9 nM |  | Ki [6]: 21 nM |
| CN(C)CCC(Oc1ccc([N+](=O)[O-])cc1)c1ccc(OCCCN2CCCCC2)cc1 (stereo not given) |  | 3.7 nM | Ki [6]: 8.7 nM |
| COc1ccc(OC(CCN(C)C)c2ccc(OCCCN3CCCCC3)cc2)cc1 (stereo not given) | 1 nM |  |  |
| CC(C)N1CCN(C(=O)c2ccc(C(CCN(C)C)Oc3ccc(C(F)(F)F)cc3)cc2)CC1 (stereo not given) | 2.3 nM |  |  |
| CN(C)CCC(Oc1ccc(C(F)(F)F)cc1)c1ccc(OCCCN2CCCCC2)cc1 (stereo not given) | 2.7 nM | 10 nM |  |
| COc1cccc(OC(CCN(C)C)c2ccc(OCCCN3CCCCC3)cc2)c1 (stereo not given) |  | 2 nM |  |
| CN(C)CCC(Oc1cccc(Cl)c1)c1ccc(OCCCN2CCCCC2)cc1 (stereo in doubt; 37) | 0.9 nM |  | Ki [6]: 2.7 nM |
| CN(C)CCC(Oc1cccc(Br)c1)c1ccc(OCCCN2CCCCC2)cc1 (stereo not given) |  | 2.3 nM |  |
| CN(C)CCC(Oc1ccc(Cl)c(Cl)c1)c1ccc(OCCCN2CCCCC2)cc1 (stereo in doubt; 39) |  | 7 nM |  |
| CN(C)CCC(Oc1ccc(Cl)cc1)c1ccc(OCCCN2CCCCC2)cc1 (stereo not given) |  | 2.3 nM |  |
| CN(C)CCC(Oc1ccc(C(F)(F)F)cc1)c1ccccc1 (stereo not given) | 6630 nM | 7.7 nM | Ki [6]: 8.3 nM |
| CN(C)CCC(Oc1ccccc1)c1ccc(C#CCCN2CCCCC2)cc1 (stereo not given) | 1.3 nM | 6 nM |  |
| CN(C)CCC(Oc1ccc(C#N)cc1)c1ccc(OCCCN2CCCCC2)cc1 (stereo not given) |  | 7.7 nM |  |
